Assay results from US11591341B2 (ALIGOS THERAPEUTICS, INC., priority 2019, dated 2023).

What was measured:
HBV [1] = test: HBV-DNA Antiviral Assay Using HepG2.2.15 Cells (extracellular HBV DNA by qPCR); type: cell-based; conditions: Hepatitis B virus
Protocol: The following assay procedure describes the HBV antiviral assay. This assay uses HepG2.2.15 cells, which have been transfected with HBV genome, and extracellular HBV DNA quantification as endpoint. Cell viability is assessed in parallel by measuring the intracellular ATP content using the CellTiter-Glo© reagent from Promega.
On day 0, HepG2.2.15 cells were seeded in 96-well plates at a density of 6.0×10^4 cells/well (0.1 mL/well). The cells were incubated at 37° C. and 5% CO2.
On day 1, the test articles were diluted and added to cell culture wells (8 concentrations, 4-fold dilution, in duplicate). GLS4, Tenofovir and Sorafenib were used as reference compounds. 100 μL of culture medium containing the compounds was added to the plate, and the final total volume per well was 200 μL. The final concentration of DMSO in the culture medium was 0.5%. The plate map of compound treatment is shown below. The cells were cultured at 37° C. and 5% CO2 for 3 days.
On day 4, the plates were refreshed with culture media with compounds.
On day 7, cell viability was assessed using the CellTiter-Glo, and the cell culture supernatants were collected for determination of HBV DNA by qPCR.
Extracellular DNA was isolated with QIAamp 96 DNA Blood Kit per the manufacturer's manual. HBV DNA was then quantified by qPCR with HBV specific primers and probes as specified in Table 1 using the FastStart Universal MasterMix from Roche on an ABI-7900HT. The PCR cycle program consisted of 95° C. for 10 min, followed by 40 cycles at 95° C. for 15 sec and 60° C. for 1 min.
A DNA standard was prepared by dilution of the pAAV2 HBV1.3 plasmid with concentrations ranging from 10 to 1×10^7 copies/μL and used to generate a standard curve by plotting Ct value vs. the concentration of the HBV plasmid DNA standard. The quantity of HBV DNA in each sample was determined by interpolating from the standard curve.
Cell viability was calculated as follows: % Cell viability=(luminescence value of test sample−average luminescence value of blank)/(average luminescence value of 0.5% DMSO control−average luminescence of blank)×100%. HBV DNA inhibition was calculated as follows: 100-(HBV DNA copy number of test sample−HBV DNA copy number of ETV)/HBV DNA copy number of 0.5% DMSO control−HBV DNA copy number of ETV)×100%. The CC50, EC50 and EC90 values were determined by dose-response curves fitted by GraphPad Prism using “log (agonist) vs. response—Variable slope”.

HBV [2] = test: HBV-DNA Antiviral Assay Using HepG2.117 Cells (intracellular HBV DNA by qPCR); type: cell-based, hepatitis B virus (genotype D); conditions: Hepatitis B virus, HepG2.117
Outline: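 Endpoint: qPCR copy number of intracellular HBV DNA after 3-day compound exposure, with inhibition set relative to the 2% DMSO control. The cells were doxycycline-free HepG2.117 carrying a Tet-off genotype D genome, dosed at nine 4-fold dilutions. A duplicate plate gave ATP-based viability (CC50).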

[3] = 168 h, HBV DNA inhibition, HepG2.2.15 cells, extracellular HBV DNA by qPCR on day 7, read-out: EC50

| Structure (SMILES) | EC50 (HBV [1]; [3]) [nM] | further results |
| --- | --- | --- |
| C[C@@H]1Cn2c(c(C(=O)N[C@H](C)c3ccccc3)n(-c3ccc(-n4cccn4)cc3)c2=O)CN1C(=O)c1ccc(Br)c(Cl)c1 (mixture of isomers) [Example 466, (6RS)-7-(4-bromo-3-chloro-benzoyl)-6-methyl-3-oxo-N-[(1R)-1-phenylethyl]-2-(4-pyrazol-1-ylphenyl)-6,8-dihydro-5H-imidazo[1,5-a]pyrazine-1-carboxamide] | 500 to 5000 | – |
| C[C@@H](NC(=O)c1c2n(c(=O)n1-c1ccc(-n3cccn3)cc1)C[C@H](C)N(C(=O)c1ccc(Br)c(Cl)c1)C2)c1ccccc1 (mixture of isomers) [Example 467, (6SR)-7-(4-bromo-3-chloro-benzoyl)-6-methyl-3-oxo-N-[(1R)-1-phenylethyl]-2-(4-pyrazol-1-ylphenyl)-6,8-dihydro-5H-imidazo[1,5-a]pyrazine-1-carboxamide] | 100 to 500 | – |
| CC1Cn2c(c(C(=O)NCc3ccccc3-c3ncccn3)n(-c3ccc(-n4cccn4)cc3)c2=O)CN1C(=O)c1ccc(Br)c(Cl)c1 (racemic) [Example 468, rac-(6R)-7-(4-bromo-3-chloro-benzoyl)-6-methyl-3-oxo-2-(4-pyrazol-1-ylphenyl)-N-[(2-pyrimidin-2-ylphenyl)methyl]-6,8-dihydro-5H-imidazo[1,5-a]pyrazine-1-carboxamide] | 100 to 500 | – |
| C[C@H]1Cn2c(c(C(=O)NCc3ccccc3-c3ncccn3)n(-c3ccc(-n4cccn4)cc3)c2=O)CN1C(=O)c1ccc(Br)c(Cl)c1 (racemic) [Example 469, rac-(6S)-7-(4-bromo-3-chloro-benzoyl)-6-methyl-3-oxo-2-(4-pyrazol-1-ylphenyl)-N-[(2-pyrimidin-2-ylphenyl)methyl]-6,8-dihydro-5H-imidazo[1,5-a]pyrazine-1-carboxamide] | < 100 | – |
| C[C@@H]1Cn2c(c(C(=O)NCc3ccccc3-c3ncccn3)n(-c3ccc(-n4cccn4)cc3)c2=O)CN1C(=O)c1ccc(Br)c(C#N)c1 (stereo in doubt) [Example 470, rac-(6R)-7-(4-bromo-3-cyano-benzoyl)-6-methyl-3-oxo-2-(4-pyrazol-1-ylphenyl)-N-[(2-pyrimidinn-2-ylphenyl)methyl]-6,8-dihydro-5H-imidazo[1,5-a]yrazine-1-carboxamide] | 100 to 500 | – |
| C[C@H]1Cn2c(c(C(=O)NCc3ccccc3-c3ncccn3)n(-c3ccc(-n4cccn4)cc3)c2=O)CN1C(=O)c1ccc(Br)c(C#N)c1 (stereo in doubt) [Example 471, rac-(6S)-7-(4-bromo-3-cyano-benzoyl)-6-methyl-3-oxo-2-(4-pyrazol-1-ylphenyl)-N-[(2-pyrimidin-2-ylphenyl)methyl]-6,8-dihydro-5H-imidazo[1,5-a]pyrazine-1-carboxamide] | 500 to 5000 | – |
| C[C@@H](NC(=O)c1c2n(c(=O)n1-c1ccc(OC3CC3)cc1)CCN(C(=O)c1ccc(Br)c(Cl)c1)C2)c1ccccc1-n1cncn1 (stereo in doubt) [Example 472, 7-(4-bromo-3-chloro-benozyl)-2-[4-(cyclopropoxy)phenyl]-3-oxo-N-[rac-(1R)-1-[2-(1,2,4-triazol-1-yl)phenyl]ethyl]-6,8-dihydro-5H-imidazo[1,5-a]pyrazine-1-carboxamide] | 500 to 5000 | – |
| C[C@H](NC(=O)c1c2n(c(=O)n1-c1ccc(OC3CC3)cc1)CCN(C(=O)c1ccc(Br)c(Cl)c1)C2)c1ccccc1-n1cncn1 (stereo in doubt) [Example 473, 7-(4-bromo-3-chloro-benzoyl)-2-[4-(cyclopropoxy)phenyl]-3-oxo-N-[rac-(1S)-1-[2-(1,2,4-triazol-1-yl)phenyl]ethyl]-6,8-dihydro-5H-imidazo[1,5-a]pyrazine-1-carboxamide] | > 5000 | – |
| O=C1NCCCn2c1c1n(c2=O)CCN(C(=O)Nc2ccc(F)c(Cl)c2)C1 [Example 1, N-(3-chloro-4-fluorophenyl)-6,12-dioxo-1,3,4,8,9,10,11,12-octahydro-2H,6H-pyrazino[1′,2′:3,4]imidazo[1,5-a][1,4]diazepine-2-carboxamide] | > 5000 | – |
| CN1CCCn2c(c3n(c2=O)CCN(C(=O)Nc2ccc(F)c(Cl)c2)C3)C1=O [Example 2, N-(3-chloro-4-fluorophenyl)-11-methyl-6,12-dioxo-1,3,4,8,9,10,11,12-octahydro-2H,6H-pyrazino[1′,2′:3,4]imidazo[1,5-a][1,4]diazepine-2-carboxamide] | 500 to 5000 | – |
| O=C(Nc1ccc(F)c(Cl)c1)N1CCn2c(c3n(c2=O)CCCN(Cc2ccccc2)C3=O)C1 [Example 3, 11-benzyl-N-(3-chloro-4-fluorophenyl)-6,12-dioxo-1,3,4,8,9,10,11,12-octahydro-2H,6H-pyrazino[1′,2′:3,4]imidazo[1,5-a][1,4]diazepine-2-carboxamide] | – | EC50 (HBV [1]; HepG2.2.15, 168 h): 100 to 500 nM |
| COc1ccc(CN2CCCn3c(c4n(c3=O)CCN(C(=O)Nc3ccc(F)c(Cl)c3)C4)C2=O)cc1 [Example 4, N-(3-chloro-4-fluorophenyl)-11-(4-methoxybenzyl)-6,12-dioxo-1,3,4,8,9,10,11,12-octahydro-2H,6H-pyrazino[1′,2′:3,4]imidazo[1,5-a][1,4]diazepine-2-carboxamide] | < 100 | – |
| O=C1NCCCn2c1c1n(c2=O)CCN(C(=O)c2ccc(Br)cc2)C1 [Example 5, 4-(4-bromobenzoyl)-4,7,9,13-tetraazatricyclo[7.5.0.0^[2,7]]tetradec-1-ene-8,14-dione] | > 5000 | – |
| O=C(NCc1c(F)ccc2nccnc12)c1c2n(c(=O)n1-c1ccc(-n3cccn3)cc1)CCN(C(=O)c1ccc(Br)c(Cl)c1)C2 [Example 458, 7-(4-bromo-3-chloro-benzoyl)-N-[(6-fluoroquinoxalin-5-yl)methyl]-3-oxo-2-(4-pyrazol-1-ylphenyl)-6,8-dihydro-5H-imidazo[1,5-a]pyrazine-1-carboxamide] | – | EC50 (HBV [2]): 100 to 500 nM |
| COc1ccc(CNC(=O)c2c3n(c(=O)n2-c2ccc(-n4cccn4)cc2)CCN(C(=O)c2ccc(Br)c(Cl)c2)C3)c(F)c1 [Example 459, 7-(4-bromo-3-chloro-benzoyl)-N-[(2-fluoro-4-methoxy-phenyl)methyl]-3-oxo-2-(4-pyrazol-1-ylphenyl)-6,8-dihydro-5H-imidazo[1,5-a]pyrazine-1-carboxamide] | – | EC50 (HBV [2]): 100 to 500 nM |
| COc1ccc(CNC(=O)c2c3n(c(=O)n2-c2ccc(OC4CC4)cc2)CCN(C(=O)c2ccc(Br)c(Cl)c2)C3)c(F)c1 [Example 460, 7-(4-bromo-3-chloro-benzoyl)-2-[4-(cyclopropoxy)phenyl]-N-[(2-fluoro-4-methoxy-phenyl)methyl]-3-oxo-6,8-dihydro-5H-imidazo[1,5-a]pyrazine-1-carboxamide] | – | EC50 (HBV [2]): 100 to 500 nM |
| O=C(NCc1c(F)ccc2nccnc12)c1c2n(c(=O)n1-c1ccc(OC3CC3)cc1)CCN(C(=O)c1ccc(Br)c(Cl)c1)C2 [Example 461, 7-(4-bromo-3-chloro-benozyl)-2-[4-(cyclopropoxy)phenyl]-N-[(6-fluoroquinoxalin-5-yl)methyl]-3-oxo-6,8-dihydro-5H-imidazo[1,5-a]pyrazine-1-carboxamide] | – | EC50 (HBV [2]): < 100 nM |
| Cc1c(C(=O)N2CCn3c(c(C(=O)NCc4ccccc4)n(-c4ccc(OC5CC5)cc4)c3=O)C2)ccc(Br)c1Cl [Example 462, N-benzyl-7-(4-bromo-3-chloro-2-methyl-benzoyl)-2-[4-(cyclopropoxy)phenyl]-3-oxo-6,8-dihydro-5H-imidazo[1,5-a]pyrazine-1-carboxamide] | – | EC50 (HBV [2]): 500 to 5000 nM |
